These results are taken from patent US12398154B2, “Azaquinazoline pan-KRas inhibitors” (Mirati Therapeutics, Inc., priority 2020, dated 2025).

Where only a bound is given, the exact number is not on record here.

For test [1], the system named is phospho-ERK in AsPC-1 (G12D) cells. Briefly: Inhibition of KRas-mediated phosphorylation of ERK (in-cell western). Conditions: Homo sapiens, ASPC1, 3 h, 3 hours compound, phospho-ERK normalized to GAPDH. In kind it is cell-based. How it is done:
(§1) Diluted compounds were then added in a final concentration of 0.5% DMSO. After 3 hours, 50 μL of 4.0% formaldehyde was added and the plates incubated at room temperature for 20 minutes. The plates were then dumped and permeabilized with 150 μL of ice cold 100% methanol for 10 minutes.
(§2) The amount of phospho-ERK was determined using an antibody specific for the phosphorylated form of ERK and compared to the amount of GAPDH. […] The plates were incubated overnight at 4° C. The plates were washed 3× with 150 uL PBS+0.1% Tween 20.
(§3) The plates were washed 3× with 150 uL PBS+0.1% Tween 20. Plates were imaged dry on a Li-COR Odyssey CLX plate reader.
(§4) The phospho-ERK (Thr202/Tyr204) signal was normalized to the GAPDH signal for each well and percent of DMSO control values were calculated. IC50 values were generated using a 4-parameter fit of the dose response curve.

Test [2] concerns phospho-ERK in NCI-H460 (Q61H) cells. The test is described as above. In kind it is cell-based. Conditions: Homo sapiens, NCI-H460, 3 h, 3 hours compound, phospho-ERK normalized to GAPDH. The method, then:
as §1, §2, §3, §4

For test [3], the system named is phospho-ERK in NCI-H727 (G12V) cells. The description is as above. In kind it is cell-based. Conditions: Homo sapiens, NCI-H727, 3 h, 3 hours compound, phospho-ERK normalized to GAPDH. How it is done: as §1, §2, §3, §4
A further test has as its target KRas G12D (Homo sapiens, UniProt P01116, G12D). Briefly: biochemical.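 Note: TR-FRET displacement binding assay on KRas, read after a one-hour incubation at room temperature, IC50 fitted from percent-of-control values.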
The target in the next test is KRas G12V (Homo sapiens, UniProt P01116, G12V). Put plainly: biochemical.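 Note: KRas binding measured by TR-FRET displacement at room temperature, IC50 fitted from percent of control values.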
KRas G12V, sequence (P01116 1-169 isoform P01116-2 G12V): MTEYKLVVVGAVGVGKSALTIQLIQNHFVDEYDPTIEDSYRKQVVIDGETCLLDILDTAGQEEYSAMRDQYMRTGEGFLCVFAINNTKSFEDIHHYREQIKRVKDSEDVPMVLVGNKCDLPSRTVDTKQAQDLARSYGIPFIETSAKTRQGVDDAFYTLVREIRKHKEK
The target in another test is KRas G12R (Homo sapiens, UniProt P01116, G12R). Briefly: biochemical.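 Note: TR-FRET displacement assay of compound binding to KRas, read after one hour at room temperature, potency from a four-parameter fit of percent-of-control values.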
KRas G12R, sequence (P01116 1-169 isoform P01116-2 G12R): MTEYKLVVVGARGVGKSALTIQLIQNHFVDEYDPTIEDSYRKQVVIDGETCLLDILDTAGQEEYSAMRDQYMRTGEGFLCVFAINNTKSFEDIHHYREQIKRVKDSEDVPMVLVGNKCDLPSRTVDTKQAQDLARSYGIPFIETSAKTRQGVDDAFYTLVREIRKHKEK
The next test has as its system pERK in MKN1 cells. Briefly: Inhibition of KRas phosphorylation of ERK (Cisbio HTRF pERK assay). Conditions: Homo sapiens, MKN-1, 3 h, read-out: Inhibition (HTRF IC50) of KRas-mediated Phosphorylation of ERK, MKN1.
A further test concerns pERK in PSN1 cells. The test is described as above. Conditions: Homo sapiens, PSN1, 3 h, read-out: Inhibition (HTRF IC50) of KRas-mediated Phosphorylation of ERK, PSN1.
The target in the next test is KRas G12A (Homo sapiens, UniProt P01116, G12A). Briefly: biochemical.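 Note: binding to KRas measured by TR-FRET displacement after one hour at room temperature, IC50 from a four-parameter fit of percent-of-control values.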
KRas G12A, sequence (P01116 1-169 isoform P01116-2 G12A): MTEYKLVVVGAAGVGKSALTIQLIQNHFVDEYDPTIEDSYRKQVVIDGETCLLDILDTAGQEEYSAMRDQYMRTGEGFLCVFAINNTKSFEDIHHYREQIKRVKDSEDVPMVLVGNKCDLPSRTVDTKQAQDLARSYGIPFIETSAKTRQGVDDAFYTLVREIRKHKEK
Another test deals with KRas G12S (Homo sapiens, UniProt P01116, G12S). Put plainly: biochemical.
KRas G12S, sequence (P01116 1-169 isoform P01116-2 G12S): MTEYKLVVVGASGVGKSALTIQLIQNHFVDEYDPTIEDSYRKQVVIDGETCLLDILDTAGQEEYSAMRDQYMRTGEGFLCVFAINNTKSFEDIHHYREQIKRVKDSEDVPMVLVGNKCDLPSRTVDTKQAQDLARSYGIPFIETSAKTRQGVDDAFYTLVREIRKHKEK
The target in another test is KRas G12C (Homo sapiens, UniProt P01116, G12C). Briefly: biochemical.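 Note: binding to KRas assessed by TR-FRET displacement after one hour incubation at room temperature, potency fitted from percent-of-control values.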
KRas G12C, sequence (P01116 1-169 isoform P01116-2 G12C): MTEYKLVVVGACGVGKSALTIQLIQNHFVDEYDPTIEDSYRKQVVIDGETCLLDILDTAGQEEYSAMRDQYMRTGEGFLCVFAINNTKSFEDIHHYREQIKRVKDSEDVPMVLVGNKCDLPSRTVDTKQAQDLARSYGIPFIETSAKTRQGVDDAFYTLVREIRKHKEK
The next test concerns the target KRas WT (Homo sapiens, UniProt P01116). Put plainly: biochemical.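 Note: binding to KRas read as TR-FRET displacement after a one-hour room-temperature incubation, IC50 derived from percent-of-control values.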
The subject of a further test is pERK in ASPC1 cells. Put plainly: Inhibition of KRas phosphorylation of ERK (Cisbio HTRF pERK assay). Conditions: Homo sapiens, ASPC1, read-out: Inhibition (HTRF IC50) of KRas-mediated Phosphorylation of ERK, AsPC-1.
The test system of a further test is pERK in H727 cells. Described as above. Conditions: Homo sapiens, NCI-H727, read-out: Inhibition (HTRF IC50) of KRas-mediated Phosphorylation of ERK, H727.
In another test the test system is pERK in H460 cells. The test is described as above. Conditions: Homo sapiens, NCI-H460, read-out: Inhibition (HTRF IC50) of KRas-mediated Phosphorylation of ERK, H460.
The test system of another test is pERK in HCT116 cells. The description is as above. Conditions: Homo sapiens, HCT-116, read-out: Inhibition (HTRF IC50) of KRas-mediated Phosphorylation of ERK, HCT116.

KRas WT, sequence (P01116 1-169 isoform P01116-2): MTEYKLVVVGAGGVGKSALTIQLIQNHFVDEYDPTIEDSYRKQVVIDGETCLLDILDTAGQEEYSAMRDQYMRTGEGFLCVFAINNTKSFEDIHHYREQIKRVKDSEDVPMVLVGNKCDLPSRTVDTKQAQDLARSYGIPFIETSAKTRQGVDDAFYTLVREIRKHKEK
KRas G12D, sequence (P01116 1-169 isoform P01116-2 G12D): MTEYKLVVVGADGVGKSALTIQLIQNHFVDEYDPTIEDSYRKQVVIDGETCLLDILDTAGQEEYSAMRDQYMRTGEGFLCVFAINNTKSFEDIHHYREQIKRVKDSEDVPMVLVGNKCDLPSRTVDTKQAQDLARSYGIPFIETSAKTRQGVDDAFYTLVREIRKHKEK

In the case of `CCc1c(F)ccc2cc(O)cc(-c3ncc4c(N5CCC[C@@]6(CNC(=O)C6)C5)nc(OC[C@]56CCCN5C[C@@H](O)C6)nc4c3F)c12` [Example 305, (R)-7-(7-(8-ethyl-7-fluoro-3-hydroxynaphthalen-1-yl)-8-fluoro-2-(((2S,7aR)-2-hydroxytetrahydro-1H-pyrrolizin-7a(5H)-yl)methoxy)pyrido[4,3-d]pyrimidin-4-yl)-2,7-diazaspiro[4.5]decan-3-one], the IC50 in test [1] is at least 10000 nM; in [2] it was at least 10000 nM; in [3], at least 10000 nM; against KRas G12D, 25 nM; at KRas G12V it was 6 nM; on KRas G12R it was 14 nM.
For `OCC1COCCN(c2nc(OCC34CCCN3CCC4)nc3c(F)c(-c4cc(O)cc5ccc(F)c(F)c45)ncc23)C1` (stereo not drawn) [Example 457, 5,6-difluoro-4-(8-fluoro-2-((hexahydro-1H-pyrrolizin-7a-yl)methoxy)-4-(6-(hydroxymethyl)-1,4-oxazepan-4-yl)pyrido[4,3-d]pyrimidin-7-yl)naphthalen-2-ol], the IC50 in test [2] amounted to 9410 nM; in [3], 3950 nM; against KRas G12D, 31 nM; against KRas G12V, 6 nM; against KRas G12R, 10 nM.
For `C#Cc1c(F)ccc2cc(O)cc(-c3ncc4c(N5CCC[C@](C)(O)C5)nc(OC[C@@]56CCCN5C[C@H](F)C6)nc4c3F)c12` [Example 10], the IC50 in test [1] is 297 nM; on KRas G12D, at most 2 nM; at KRas G12V, at most 2 nM; at KRas G12R it was 3 nM; in the test on pERK in MKN1 cells it was 13 nM; in the test on pERK in PSN1 cells it was 3.34 µM.
In the case of `CCc1c(F)ccc2cc(O)cc(-c3ncc4c(N5C[C@H](O)CC[C@@H]5C)nc(OC[C@@]56CCCN5C[C@H](F)C6)nc4c3F)c12` [Example 186], the IC50 in test [1] was 1590 nM; in test [2], 592 nM; in [3], 1060 nM; with pERK in MKN1 cells, 108 nM; in the test on pERK in PSN1 cells, at least 10 µM.
Taken in the same sequence, the figures for `CCc1c(F)ccc2cc(O)cc(-c3ncc4c(N5CCCC(O)(C(F)(F)F)C5)nc(OC[C@@]56CCCN5C[C@H](F)C6)nc4c3F)c12` (stereo partly drawn) [Example 183] were 399 nM, 137 nM, 720 nM, 2 nM and 4.23 µM.
`CCc1c(F)ccc2cc(O)cc(-c3ncc4c(N5CCC[C@@](C)(O)C5)nc(OC[C@@H]5C[C@@H](OC(=O)NC)CN5C)nc4c3F)c12` [Example 12, (3R,5S)-5-(((7-(8-ethyl-7-fluoro-3-hydroxy)naphthalen-1-yl)-8-fluoro-4-((R)-3-hydroxy-3-methylpiperidin-1-yl)pyrido[4,3-d]pyrimidin-2-yl)oxy)methyl)-1-methylpyrrolidin-3-yl methylcarbamate]: the IC50 in test [1] is 497 nM; at KRas G12D, 3 nM; against KRas G12V, 3 nM; on KRas G12R, 4 nM; in the test on pERK in MKN1 cells, 26 nM; with pERK in PSN1 cells, at least 10 µM.
As for `CCc1c(F)ccc2cc(O)cc(-c3ncc4c(N5C[C@H](O)CC[C@H]5C)nc(OC[C@@]56CCCN5C[C@H](F)C6)nc4c3F)c12` [Example 182], the IC50 in [1] worked out at 547 nM; in [2] it was 157 nM; in [3], 355 nM; with pERK in MKN1 cells it was 5 nM; with pERK in PSN1 cells, 6.9 µM.
As for `CCc1c(F)ccc2cc(O)cc(-c3ncc4c(N5CCCC(CO)C5)nc(OC[C@@]56CCCN5C[C@H](F)C6)nc4c3F)c12` (stereo partly drawn) [Example 306, 5-ethyl-6-fluoro-4-(8-fluoro-2-(((2R,7aS)-2-fluorohexahydro-1H-pyrrolizin-7a-yl)methoxy)-4-(3-(hydroxymethyl)piperidin-1-yl)pyrido[4,3-d]pyrimidin-7-yl)naphthalen-2-ol], the IC50 came to 405 nM in test [1]; 306 nM in [2]; 461 nM in [3]; 57 nM with pERK in MKN1 cells; 6.8 µM in the test with pERK in PSN1 cells.
`CCc1c(F)ccc2cc(O)cc(-c3ncc4c(NC5CN(C(N)=O)C5)nc(OC[C@@]56CCCN5C[C@H](F)C6)nc4c3F)c12` [Example 310, 3-((7-(8-ethyl-7-fluoro-3-hydroxynaphthalen-1-yl)-8-fluoro-2-(((2R,7aS)-2-fluorohexahydro-1H-pyrrolizin-7a-yl)methoxy)pyrido[4,3-d]pyrimidin-4-yl)amino)azetidine-1-carboxamide]: the IC50 in [1] is at least 10000 nM; in [2], 3790 nM; in test [3], 3370 nM; at KRas G12D, 8 nM; against KRas G12V it was at most 2 nM; at KRas G12R it was at most 2 nM.
With `CCc1c(F)ccc2cc(O)cc(-c3ncc4c(N5C[C@@H]6C[C@H](C5)[C@H](O)C6)nc(OCC5(CN6CCCC6)CC5)nc4c3F)c12` [Example 320, (1R,5R,6R)-3-(7-(8-ethyl-7-fluoro-3-hydroxynaphthalen-1-yl)-8-fluoro-2-((1-(pyrrolidin-1-ylmethyl)cyclopropyl)methoxy)pyrido[4,3-d]pyrimidin-4-yl)-3-azabicyclo[3,2,1]octan-6-ol], the IC50 on KRas G12D was 3 nM; against KRas G12V, at most 2 nM; against KRas G12R, 3 nM; against KRas G12A, at most 2 nM; against KRas G12S, at most 2 nM; against KRas G12C, at most 2 nM. The IC50 at KRas WT was at most 2 nM; with pERK in MKN1 cells, 10 nM; with pERK in PSN1 cells, 5.18 µM; in the test on pERK in ASPC1 cells, 115 nM; with pERK in H727 cells, 82 nM; in the test with pERK in H460 cells, 100 nM. Also, the IC50 in the test on pERK in HCT116 cells was found to be 65 nM.
As to `CCc1cccc2cc3[nH]ncc3c(-c3ncc4c(N5CCC[C@@](C)(O)C5)nc(OC[C@@]56CCCN5C[C@H](F)C6)nc4c3F)c12` [Example 473, (3R)-1-(7-(5-ethyl-1H-benzo[f]indazol-4-yl)-8-fluoro-2-(((2R,7aS)-2-fluorohexahydro-1H-pyrrolizin-7a-yl)methoxy)pyrido[4,3-d]pyrimidin-4-yl)-3-methylpiperidin-3-ol], the IC50 in [2] was 325 nM; in test [3], 320 nM; against KRas G12D, 11 nM; against KRas G12V, 8 nM; against KRas G12R, 14 nM; against KRas G12A, 8 nM. In addition, the values for the IC50 against KRas G12S, against KRas G12C and against KRas WT were 9 nM, 9 nM and 10 nM, respectively.
On to `CCc1c(F)ccc2cc(O)cc(-c3ncc4c(N5CCCC6(CC(=O)NC6=O)C5)nc(OC[C@@]56CCCN5C[C@H](F)C6)nc4c3F)c12` (stereo partly drawn) [Example 318, 7-(7-(8-ethyl-7-fluoro-3-hydroxynaphthalen-1-yl)-8-fluoro-2-(((2R,7aS)-2-fluorohexahydro-1H-pyrrolizin-7a-yl)methoxy)pyrido[4,3-d]pyrimidin-4-yl)-2,7-diazaspiro[4.5]decane-1,3-dione], for which the IC50 against KRas G12D, against KRas G12V, on KRas G12R, on KRas G12A, against KRas G12S and against KRas G12C was at most 2 nM in each case. The IC50 against KRas WT is at most 2 nM; with pERK in MKN1 cells, 13 nM; in the test on pERK in PSN1 cells it was 0.877 µM; in the test on pERK in ASPC1 cells, 133 nM; with pERK in H727 cells it was 69 nM; in the test on pERK in H460 cells, 65 nM. The IC50 with pERK in HCT116 cells stood at 60 nM.
